Results: US8779142B2, “Azabicyclo compound and salt thereof” (Taiho Pharmaceutical Co., Ltd., priority 2009, dated 2014)
Like-named read-outs stand apart in the source and are kept apart here.

Tests used:
[1] = target: human HSP90 alpha protein (HSP90 N-terminal protein, amino acids 2-236) (Homo sapiens (Human), UniProt P07900); experiment: Measurement of HSP90-binding activity (AlphaScreen competitive assay, biotin-labeled geldanamycin); conditions: read-out: HSP-binding activity IC50
SK-BR-3 cells = experiment: Measurement of cell growth inhibition (crystal violet staining method); type: cell-based
[2] = concentration inhibiting binding of biotin-labeled geldanamycin (40 nM) to purified HSP90 to 50% of control
[3] = Homo sapiens, breast cancer SK-BR-3 cells, 72 hr culture with test substance

| IC50 [1, 2] | IC50 (SK-BR-3 cells; [3]) | Compound | IC50 (SK-BR-3 cells; Homo sapiens, SK-BR-3, 72 h) | IC50 [1] | IC50 (SK-BR-3 cells) |
| --- | --- | --- | --- | --- | --- |
| 120 nM | 70 nM | Cn1cc(-c2cn(-c3ccnc4c3c(C(F)(F)F)nn4-c3ccc(C(N)=O)cc3NC3CCC3)cn2)cn1 [Example 165, 3-(Cyclobutylamino)-4-{4-(4-(1-methyl-1H-pyrazol-4-yl)-1H-imidazol-1-yl)-3-(trifluoromethyl)-1H-pyrazolo[3,4-b]pyridin-1-yl}benzamide] | – | – | – |
| 250 nM | 100 nM | CCc1cn(-c2ccc(C(N)=O)c(NC3CCN(C)CC3)c2)c2nccc(-c3cnc4ccccc4c3)c12 [Example 71, 4-{3-Ethyl-4-(quinolin-3-yl)-1H-pyrrolo[2,3-b]pyridin-1-yl}-2-(1-methylpiperidin-4-ylamino)benzamide] | – | – | – |
| 2810 nM | 920 nM | Cc1cn(-c2ccc(C(N)=O)c(NCCCCO)c2)c2nccc(-c3cnc4ccccc4c3)c12 [Example 55, 2-(4-Hydroxybutylamino)-4-{3-methyl-4-(quinolin-3-yl)-1H-pyrrolo[2,3-b]pyridin-1-yl}benzamide] | – | – | – |
| 700 nM | 920 nM | CCc1c(-n2nc(C(C)C)c3c(-n4cnc(-c5cnn(C)c5)c4)ccnc32)ccc(C(N)=O)c1F [Example 131, 3-Ethyl-2-fluoro-4-{3-isopropyl-4-(4-(1-methyl-1H-pyrazol-4-yl)-1H-imidazol-1-yl)-1H-pyrazolo[3,4-b]pyridin-1-yl}benzamide] | – | – | – |
| 320 nM | 240 nM | CC(C)c1nn(-c2ccc(C(N)=O)c(NCCCN(C)C)c2)c2nccc(-c3cnc4ccccc4c3)c12 [Example 29, 2-{3-(Dimethylamino)propylamino}-4-{3-isopropyl-4-(quinolin-3-yl)-1H-pyrazolo[3,4-b]pyridin-1-yl}benzamide] | – | – | – |
| 180 nM | 130 nM | CCCNc1cc(C(N)=O)ccc1-n1nc(C(C)C)c2c(-n3cnc(-c4cnn(C)c4)c3)ccnc21 [Example 122, 4-{3-Isopropyl-4-(4-(1-methyl-1H-pyrazol-4-yl)-1H-imidazol-1-yl)-1H-pyrazolo[3,4-b]pyridin-1-yl}-3-(propylamino)benzamide] | – | – | – |
| 240 nM | 130 nM | CC(C)c1nn(-c2ccc(C(N)=O)c(NCCN(C)C)c2)c2nccc(-c3cnc4ccccc4c3)c12 [Example 27, 2-{2-(Dimethylamino)ethylamino}-4-{3-isopropyl-4-(quinolin-3-yl)-1H-pyrazolo[3,4-b]pyridin-1-yl}benzamide] | – | – | – |
| 200 nM | 110 nM | CCc1c(-n2nc(C(C)C)c3c(-n4cnc(-c5cnn(C)c5)c4)ccnc32)ccc(C(N)=O)c1N [Example 134, 2-Amino-3-ethyl-4-{3-isopropyl-4-(4-(1-methyl-1H-pyrazol-4-yl)-1H-imidazol-1-yl)-1H-pyrazolo[3,4-b]pyridin-1-yl}benzamide] | – | – | – |
| 320 nM | 380 nM | C=C(C)c1cc(C(N)=O)ccc1-n1nc(C(F)(F)F)c2c(-n3cnc(-c4cnn(C)c4)c3)ccnc21 [Example 174, 4-{4-(4-(1-Methyl-1H-pyrazol-4-yl)-1H-imidazol-1-yl)-3-(trifluoromethyl)-1H-pyrazolo[3,4-b]pyridin-1-yl}-3-(prop-1-en-2-yl)benzamide] | – | – | – |
| – | – | 4-{4-(4-(1-(Hydroxyethyl)-1H-pyrazol-4-yl)-1H-imidazol-1-yl)-3-isopropyl-1H-pyrazolo[3,4-b]pyridin-1-yl}-2-(isopropyl)benzamide [Example 148] | – | 400 nM | 240 nM |
| 110 nM | 40 nM | CCc1cc(C(N)=O)ccc1-n1nc(C(F)(F)F)c2c(-n3cnc(-c4cnn(C)c4)c3)ccnc21 [Example 155, 3-Ethyl-4-{4-(4-(1-methyl-1H-pyrazol-4-yl)-1H-imidazol-1-yl)-3-(trifluoromethyl)-1H-pyrazolo[3,4-b]pyridin-1-yl}benzamide] | – | – | – |
| 490 nM | 180 nM | CC(C)c1nn(-c2ccc(C(N)=O)c(NCC(F)(F)F)c2)c2nccc(-n3cnc(-c4cnn(C)c4)c3)c12 [Example 114, 4-{3-Isopropyl-4-(4-(1-methyl-1H-pyrazol-4-yl)-1H-imidazol-1-yl)-1H-pyrazolo[3,4-b]pyridin-1-yl}-2-(2,2,2-trifluoroethylamino)benzamide] | – | – | – |
| 320 nM | 70 nM | CC(C)c1nn(-c2ccc(C(N)=O)c(N(O)C3CCCCC3)c2)c2nccc(-n3cnc(-c4cnn(Cc5ccccc5)c4)c3)c12 [Example 93, 2-(Hydroxycyclohexylamino)-4-{3-isopropyl-4-(4-(1-benzyl-1H-pyrazol-4-yl)-1H-imidazol-1-yl)-1H-pyrazolo[3,4-b]pyridin-1-yl}benzamide] | – | – | – |
| 160 nM | 240 nM | CC(C)c1nn(-c2ccc(C(N)=O)c(NCCN3CCCC3)c2)c2nccc(-n3cnc(-c4cnn(C)c4)c3)c12 [Example 115, 4-{3-Isopropyl-4-(4-(1-methyl-1H-pyrazol-4-yl)-1H-imidazol-1-yl)-1H-pyrazolo[3,4-b]pyridin-1-yl}-2-{2-(pyrrolidin-1-yl)ethylamino}benzamide] | – | – | – |
| 120 nM | 220 nM | COc1cc(C(N)=O)ccc1-n1nc(C(C)C)c2c(-n3cnc(-c4cccnc4)c3)ccnc21 [Example 142, 4-{3-Isopropyl-4-(4-(pyridin-3-yl)-1H-imidazol-1-yl)-1H-pyrazolo[3,4-b]pyridin-1-yl}-3-methoxybenzamide] | – | – | – |
| 190 nM | 210 nM | CCNc1cc(C(N)=O)ccc1-n1nc(C(F)(F)F)c2c(-n3cnc(-c4cnn(CC)c4)c3)ccnc21 [Example 185, 4-{4-(4-(1-Ethyl-1H-pyrazol-4-yl)-1H-imidazol-1-yl)-3-(trifluoromethyl)-1H-pyrazolo[3,4-b]pyridin-1-yl}-3-(ethylamino)benzamide] | – | – | – |
| 100 nM | 60 nM | CCCNc1cc(C(N)=O)ccc1-n1nc(C(F)(F)F)c2c(-n3cnc(-c4cnn(C)c4)c3)ccnc21 [Example 163, 4-{4-(4-(1-Methyl-1H-pyrazol-4-yl)-1H-imidazol-1-yl)-3-(trifluoromethyl)-1H-pyrazolo[3,4-b]pyridin-1-yl}-3-(propylamino)benzamide] | – | – | – |
| – | – | 2-(Trans-4-methylsulfonamidocyclohexylamino)-4-{3-methyl-4-(quinolin-3-yl)-1H-pyrrolo[2,3-b]pyridin-1-yl}benzamide [Example 63] | – | 470 nM | 170 nM |
| 140 nM | 110 nM | Cn1cc(-c2cn(-c3ccnc4c3c(C(F)(F)F)nn4-c3ccc(C(N)=O)cc3NC3CCCC3)cn2)cn1 [Example 166, 3-(Cyclopentylamino)-4-{4-(4-(1-methyl-1H-pyrazol-4-yl)-1H-imidazol-1-yl)-3-(trifluoromethyl)-1H-pyrazolo[3,4-b]pyridin-1-yl}benzamide] | – | – | – |
| 1140 nM | 70 nM | CC(C)c1nn(-c2ccc(C(N)=O)c(Nc3ccc(N4CCOCC4)cc3)c2)c2nccc(-c3cnc4ccccc4c3)c12 [Example 33, 4-{3-Isopropyl-4-(quinolin-3-yl)-1H-pyrazolo[3,4-b]pyridin-1-yl}-2-(4-morpholinophenylamino)benzamide] | – | – | – |
| 200 nM | 900 nM | CC(C)c1nn(-c2ccc(C(N)=O)cc2N)c2nccc(-n3cnc(-c4cnn(C)c4)c3)c12 [Example 107, 3-Amino-4-{3-isopropyl-4-(4-(1-methyl-1H-pyrazol-4-yl)-1H-imidazol-1-yl)-1H-pyrazolo[3,4-b]pyridin-1-yl}benzamide] | – | – | – |
| 390 nM | 690 nM | Cc1cc(C(N)=O)ccc1-n1nc(C(C)C)c2c(-n3cnc(-c4ccncc4)c3)ccnc21 [Example 149, 4-{3-Isopropyl-4-(4-(pyridin-4-yl)-1H-imidazol-1-yl)-1H-pyrazolo[3,4-b]pyridin-1-yl}-3-methylbenzamide] | – | – | – |
| 800 nM | 1930 nM | CC(C)n1cc(-c2cn(-c3ccnc4c3c(C(F)(F)F)nn4-c3ccc(C(N)=O)cc3N)cn2)cn1 [Example 186, 3-Amino-4-{4-(4-(1-isopropyl-1H-pyrazol-4-yl)-1H-imidazol-1-yl)-3-(trifluoromethyl)-1H-pyrazolo[3,4-b]pyridin-1-yl}benzamide] | – | – | – |
| 150 nM | 20 nM | C=Cc1cn(-c2ccc(C(N)=O)c(N[C@H]3CC[C@H](O)CC3)c2)c2nccc(-c3cnc4ccccc4c3)c12 [Example 46, 2-(Trans-4-hydroxycyclohexylamino)-4-{3-vinyl-4-(quinolin-3-yl)-1H-pyrrolo[2,3-b]pyridin-1-yl}benzamide] | – | – | – |
| 400 nM | 690 nM | Cc1cc(C(N)=O)ccc1-n1nc(C(C)C)c2c(-n3cnc(-c4cccnc4)c3)ccnc21 [Example 135, 4-{3-Isopropyl-4-(4-(pyridin-3-yl)-1H-imidazol-1-yl)-1H-pyrazolo[3,4-b]pyridin-1-yl}-3-methylbenzamide] | – | – | – |
| 380 nM | 70 nM | CC(C)Nc1cc(-n2nc(C(F)(F)F)c3c(-n4cnc(-c5cccnc5)c4)ccnc32)ccc1C(N)=O [Example 179, 2-(Isopropylamino)-4-{4-(4-(pyridin-3-yl)-1H-imidazol-1-yl)-3-(trifluoromethyl)-1H-pyrazolo[3,4-b]pyridin-1-yl}benzamide] | – | – | – |
| 120 nM | 30 nM | CCc1cn(-c2ccc(C(N)=O)c(N[C@H]3CC[C@H](O)CC3)c2)c2nccc(-c3cnc4ccccc4c3)c12 [Example 41, 4-{3-Ethyl-4-(quinolin-3-yl)-1H-pyrrolo[2,3-b]pyridin-1-yl}-2-(trans-4-hydroxycyclohexylamino)benzamide] | – | – | – |
| 180 nM | 160 nM | CCNc1cc(C(N)=O)ccc1-n1nc(C(C)C)c2c(-n3cnc(-c4cnn(C)c4)c3)ccnc21 [Example 121, 3-(Ethylamino)-4-{3-isopropyl-4-(4-(1-methyl-1H-pyrazol-4-yl)-1H-imidazol-1-yl)-1H-pyrazolo[3,4-b]pyridin-1-yl}benzamide] | – | – | – |

| Compound | IC50 [1, 2] | IC50 (SK-BR-3 cells; [3]) | IC50 (SK-BR-3 cells; Homo sapiens, SK-BR-3, 72 h) | IC50 [1] | IC50 (SK-BR-3 cells) |
| --- | --- | --- | --- | --- | --- |
| NCC(=O)O[C@H]1CC[C@H](Nc2cc(-n3cc(C(F)(F)F)c4c(-c5cnc6ccccc6c5)ccnc43)ccc2C(N)=O)CC1 [Example 44, Trans-4-{2-carbamoyl-5-{4-(quinolin-3-yl)-3-(trifluoromethyl)-1H-pyrrolo[2,3-b]pyridin-1-yl}phenylamino}cyclohexyl-2-aminoacetate dimethanesulfonate] | 130 nM | – | 10 nM | – | – |
